Experimental data taken from PubChem BioAssay AID2060327 (Molecular Pharmacology Branch, DTP, NCI, 2025).
“And” between values parts separate entries of the source, which are not always exact repeats. Equal values may be shown once.

Tested on: PC-3 multi-cell spheroids, viability
Test: Anticancer human tumor PC-3 cell line growth inhibition [IpAb];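 also: spheroids exposed to compounds for 7 days before readout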;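 as to viability, T/C: 100% = DMSO vehicle control wells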
Details: for viability, T/C: stronger effect = lower value; active = viability on the fitted dose curve at most 10% of control; inactive = the rest
Procedure, shortened: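 Spheroids of 60% malignant cells, 25% HUVEC and 15% MSC were exposed to targeted agents combined with ipatasertib or abemaciclib. Doses started at or near clinical Cmax (10 microM when unknown) and fell in half-log steps.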

[1] = curve of first compound, second compound 0.01 µM
[2] = curve of first compound, second compound 0.0316 µM
[3] = curve of first compound, second compound 0.1 µM
[4] = curve of first compound, second compound 0.316 µM
[5] = curve of first compound, second compound 1 µM
[6] = second compound 0.1 µM, first compound 0.0316 µM
[7] = second compound 0.1 µM, first compound 0.1 µM
[8] = second compound 0.316 µM, first compound 0.0316 µM
[9] = second compound 0.316 µM, first compound 0.1 µM
[10] = second compound 1 µM, first compound 0.0316 µM
[11] = second compound 1 µM, first compound 0.1 µM
[12] = curve of first compound, second compound 3.16 µM
[13] = curve of first compound, second compound 10 µM
[14] = second compound 0.1 µM, first compound 0.316 µM
[15] = second compound 0.1 µM, first compound 1 µM
[16] = second compound 0.1 µM, first compound 3.16 µM
[17] = second compound 0.1 µM, first compound 10 µM
[18] = second compound 0.316 µM, first compound 0.316 µM
[19] = second compound 0.316 µM, first compound 1 µM
[20] = second compound 0.316 µM, first compound 3.16 µM
[21] = second compound 0.316 µM, first compound 10 µM
[22] = second compound 1 µM, first compound 0.316 µM
[23] = second compound 1 µM, first compound 1 µM
[24] = second compound 1 µM, first compound 3.16 µM
[25] = second compound 1 µM, first compound 10 µM
[26] = second compound 3.16 µM, first compound 0.0316 µM
[27] = second compound 3.16 µM, first compound 0.1 µM
[28] = second compound 3.16 µM, first compound 0.316 µM
[29] = second compound 3.16 µM, first compound 1 µM
[30] = second compound 3.16 µM, first compound 3.16 µM
[31] = second compound 3.16 µM, first compound 10 µM
[32] = second compound 10 µM, first compound 0.0316 µM
[33] = second compound 10 µM, first compound 0.1 µM
[34] = second compound 10 µM, first compound 0.316 µM
[35] = second compound 10 µM, first compound 1 µM
[36] = second compound 10 µM, first compound 3.16 µM
[37] = second compound 10 µM, first compound 10 µM

CC(C)(C)c1cnc(CSc2cnc(NC(=O)C3CCNCC3)s2)o1 + CCN1CCN(Cc2ccc(Nc3ncc(F)c(-c4cc(F)c5nc(C)n(C(C)C)c5c4)n3)nc2)CC1
98.5 nM: IC50 [3]
active: viability, T/C (second compound 0.01 µM, first compound 0.3 µM) 7.99% | viability, T/C (second compound 0.01 µM, first compound 0.949 µM) 6.01% | viability, T/C (second compound 0.01 µM, first compound 3 µM) 7.44% | viability, T/C (second compound 0.0316 µM, first compound 0.3 µM) 4.86% | viability, T/C (second compound 0.0316 µM, first compound 0.949 µM) 4.92% | viability, T/C (second compound 0.0316 µM, first compound 3 µM) 7.51% | viability, T/C (second compound 0.1 µM, first compound 0.3 µM) 3.51% | viability, T/C (second compound 0.1 µM, first compound 0.949 µM) 6% | viability, T/C (second compound 0.1 µM, first compound 3 µM) 7.79% | viability, T/C (second compound 0.316 µM, first compound 0.3 µM) 4.21% | viability, T/C (second compound 0.316 µM, first compound 0.949 µM) 5.66% | viability, T/C (second compound 0.316 µM, first compound 3 µM) 7.81% | viability, T/C (second compound 1 µM, first compound 0.3 µM) 4.97% | viability, T/C (second compound 1 µM, first compound 0.949 µM) 7.15% | viability, T/C (second compound 1 µM, first compound 3 µM) 8.41%
175 nM: IC50 [1]
146 nM: IC50 [2]
38.1 nM: IC50 [4]
inactive: viability, T/C (second compound 0.01 µM, first compound 0.00949 µM) 75.9% | viability, T/C (second compound 0.01 µM, first compound 0.03 µM) 103% | viability, T/C (second compound 0.01 µM, first compound 0.0949 µM) 113% | viability, T/C (second compound 0.0316 µM, first compound 0.00949 µM) 63.5% | viability, T/C (second compound 0.0316 µM, first compound 0.03 µM) 71.5% | viability, T/C (second compound 0.0316 µM, first compound 0.0949 µM) 94.4% | viability, T/C (second compound 0.1 µM, first compound 0.00949 µM) 69.1% | viability, T/C (second compound 0.1 µM, first compound 0.03 µM) 73.4% | viability, T/C (second compound 0.1 µM, first compound 0.0949 µM) 51.5% | viability, T/C (second compound 0.316 µM, first compound 0.00949 µM) 55.9% | viability, T/C (second compound 0.316 µM, first compound 0.03 µM) 54.3% | viability, T/C (second compound 0.316 µM, first compound 0.0949 µM) 30.5% | viability, T/C (second compound 1 µM, first compound 0.00949 µM) 44.7% | viability, T/C (second compound 1 µM, first compound 0.03 µM) 36.5% | viability, T/C (second compound 1 µM, first compound 0.0949 µM) 22.7%
< 9.49 nM: IC50 [5]

Cn1ncnc1[C@H]1c2n[nH]c(=O)c3cc(F)cc(c23)N[C@@H]1c1ccc(F)cc1 + CCN1CCN(Cc2ccc(Nc3ncc(F)c(-c4cc(F)c5nc(C)n(C(C)C)c5c4)n3)nc2)CC1
inactive: viability, T/C (second compound 0.01 µM, first compound 0.000316 µM) 82% | viability, T/C (second compound 0.01 µM, first compound 0.001 µM) 61.4% | viability, T/C (second compound 0.01 µM, first compound 0.00316 µM) 60.6% | viability, T/C (second compound 0.01 µM, first compound 0.01 µM) 47.1% | viability, T/C (second compound 0.01 µM, first compound 0.0316 µM) 46% | viability, T/C (second compound 0.01 µM, first compound 0.1 µM) 44.3% | viability, T/C (second compound 0.0316 µM, first compound 0.000316 µM) 61.5% | viability, T/C (second compound 0.0316 µM, first compound 0.001 µM) 50.8% | viability, T/C (second compound 0.0316 µM, first compound 0.00316 µM) 47.3% | viability, T/C (second compound 0.0316 µM, first compound 0.01 µM) 49.3% | viability, T/C (second compound 0.0316 µM, first compound 0.0316 µM) 48% | viability, T/C (second compound 0.0316 µM, first compound 0.1 µM) 39% | viability, T/C (second compound 0.1 µM, first compound 0.000316 µM) 48.2% | viability, T/C (second compound 0.1 µM, first compound 0.001 µM) 50.3% | viability, T/C (second compound 0.1 µM, first compound 0.00316 µM) 52.1% | viability, T/C (second compound 0.1 µM, first compound 0.01 µM) 48.6% | viability, T/C [6] 44% | viability, T/C [7] 42.7% | viability, T/C (second compound 0.316 µM, first compound 0.000316 µM) 59.6% | viability, T/C (second compound 0.316 µM, first compound 0.001 µM) 58.2% | viability, T/C (second compound 0.316 µM, first compound 0.00316 µM) 64% | viability, T/C (second compound 0.316 µM, first compound 0.01 µM) 54.5% | viability, T/C [8] 47.6% | viability, T/C [9] 37.8% | viability, T/C (second compound 1 µM, first compound 0.000316 µM) 61% | viability, T/C (second compound 1 µM, first compound 0.001 µM) 48.8% | viability, T/C (second compound 1 µM, first compound 0.00316 µM) 46.5% | viability, T/C (second compound 1 µM, first compound 0.01 µM) 49.6% | viability, T/C [10] 44.6% | viability, T/C [11] 29.4%
28.4 nM: IC50 [4]
0.803 nM: IC50 [3]
5.12 nM: IC50 [5]
2.23 nM: IC50 [2]
9.02 nM: IC50 [1]

CCCS(=O)(=O)Nc1ccc(F)c(C(=O)c2c[nH]c3ncc(-c4ccc(Cl)cc4)cc23)c1F + CC(C)NCC(C(=O)N1CCN(c2ncnc3c2C(C)CC3O)CC1)c1ccc(Cl)cc1
inactive: viability, T/C [6] 81.9% | viability, T/C [7] 87.5% | viability, T/C [14] 95.2% | viability, T/C [15] 94.1% | viability, T/C [16] 83.8% | viability, T/C [17] 49.3% | viability, T/C [8] 45.2% | viability, T/C [9] 43.8% | viability, T/C [18] 46.4% | viability, T/C [19] 52.7% | viability, T/C [20] 50.3% | viability, T/C [21] 27% | viability, T/C [10] 25% | viability, T/C [11] 22.6% | viability, T/C [22] 27% | viability, T/C [23] 28.4% | viability, T/C [24] 26.3% | viability, T/C [25] 15.1% | viability, T/C [26] 13.6% | viability, T/C [27] 15.6% | viability, T/C [28] 16.8% | viability, T/C [29] 17.2% | viability, T/C [30] 14.5% | viability, T/C [31] 10.5% | viability, T/C [32] 12.8% | viability, T/C [33] 13% | viability, T/C [34] 15% | viability, T/C [35] 14.9% | viability, T/C [36] 12.6% | viability, T/C [37] 7.8%
< 31.6 nM: IC50 [4] | IC50 [5] | IC50 [12] | IC50 [13]
9890 nM: IC50 [3]

Cn1nccc1Nc1nccc(-c2ccn(C(CO)c3ccc(Cl)c(F)c3)c(=O)c2)n1 (configuration not stated) + CC(C)NCC(C(=O)N1CCN(c2ncnc3c2C(C)CC3O)CC1)c1ccc(Cl)cc1
inactive: viability, T/C [6] 76.7% | viability, T/C [7] 77.3% | viability, T/C [14] 83.1% | viability, T/C [15] 105% | viability, T/C [16] 127% | viability, T/C [17] 104% | viability, T/C [8] 42.8% | viability, T/C [9] 43.8% | viability, T/C [18] 41.9% | viability, T/C [19] 48% | viability, T/C [20] 88.1% | viability, T/C [21] 76.9% | viability, T/C [10] 20.4% | viability, T/C [11] 24.2% | viability, T/C [22] 27.2% | viability, T/C [23] 34.5% | viability, T/C [24] 59.1% | viability, T/C [25] 34.3% | viability, T/C [26] 14.2% | viability, T/C [27] 15.4% | viability, T/C [28] 15.1% | viability, T/C [29] 19.7% | viability, T/C [30] 23.4% | viability, T/C [31] 13.8% | viability, T/C [32] 12.7% | viability, T/C [33] 13.3% | viability, T/C [34] 12.2% | viability, T/C [35] 14.3% | viability, T/C [36] 17.4% | viability, T/C [37] 10.8%
> 10000 nM: IC50 [3]
< 31.6 nM: IC50 [4] | IC50 [5] | IC50 [12] | IC50 [13]

Cn1ncc(Cl)c1-c1cc(C(=O)NC(CN)Cc2cccc(F)c2)sc1Cl (configuration not stated)
active: viability, T/C (compound 10 µM) 0.14% and 0.16%
212 nM and 165 nM: IC50 (curve of compound)
inactive: viability, T/C (compound 0.0316 µM) 89.7% and 88.1% | viability, T/C (compound 0.1 µM) 62.9% and 60.5% | viability, T/C (compound 0.316 µM) 43.6% and 36.2% | viability, T/C (compound 1 µM) 23% and 19.2% | viability, T/C (compound 3.16 µM) 17.9% and 16.2%
